Measurements reported in US20250197375A1, “PYRIMIDINES AND METHODS OF THEIR USE” (Kineta, Inc., priority 2021, published 2025).

molecular target: PIKfyve (Homo sapiens (Human), UniProt Q9Y2I7); experiment: PIKfyve EEA1 Assay (endosomal vesicle enlargement, high content imaging in U2OS cells); format: cell-based; settings: 3 hours of treatment, activity relative to maximal APY0201 activity
Experimental: PIKfyve EEA1 Assay. Genetic or pharmacological disruption of PIKfyve activity results in enlargement of endosomal vesicles. This enlargement was utilized as a surrogate readout of PIKFyve inhibition for routine triage of PIKfyve inhibitors. U2OS cells grown in 96-well assay plates were treated with compound diluted in DMEM media containing 10% fetal bovine serum. After 3 hours of treatment, cells were fixed with paraformaldehyde, permeabilized with 0.2% Triton-X in phosphate buffered saline and stained against EEA1. During the secondary antibody staining, cells were also stained with CellMask™ Deep Red and Hoechst to detect cytoplasms and nuclei respectively. Endosomal structures were visualized using a high content imager at 40× magnification. Images were analyzed using a linear classifier algorithm integrating EEA1 spot size, intensity and texture trained on images of cells treated with the potent reference compound APY0201. Compound activity was calculated by subtracting the DMSO signal and calculating percentage activity relative to maximal APY0201 activity. IC50 values were then calculated from concentration versus percent inhibition data by logistic regression.

Chain of PIKfyve (Q9Y2I7 whole entry): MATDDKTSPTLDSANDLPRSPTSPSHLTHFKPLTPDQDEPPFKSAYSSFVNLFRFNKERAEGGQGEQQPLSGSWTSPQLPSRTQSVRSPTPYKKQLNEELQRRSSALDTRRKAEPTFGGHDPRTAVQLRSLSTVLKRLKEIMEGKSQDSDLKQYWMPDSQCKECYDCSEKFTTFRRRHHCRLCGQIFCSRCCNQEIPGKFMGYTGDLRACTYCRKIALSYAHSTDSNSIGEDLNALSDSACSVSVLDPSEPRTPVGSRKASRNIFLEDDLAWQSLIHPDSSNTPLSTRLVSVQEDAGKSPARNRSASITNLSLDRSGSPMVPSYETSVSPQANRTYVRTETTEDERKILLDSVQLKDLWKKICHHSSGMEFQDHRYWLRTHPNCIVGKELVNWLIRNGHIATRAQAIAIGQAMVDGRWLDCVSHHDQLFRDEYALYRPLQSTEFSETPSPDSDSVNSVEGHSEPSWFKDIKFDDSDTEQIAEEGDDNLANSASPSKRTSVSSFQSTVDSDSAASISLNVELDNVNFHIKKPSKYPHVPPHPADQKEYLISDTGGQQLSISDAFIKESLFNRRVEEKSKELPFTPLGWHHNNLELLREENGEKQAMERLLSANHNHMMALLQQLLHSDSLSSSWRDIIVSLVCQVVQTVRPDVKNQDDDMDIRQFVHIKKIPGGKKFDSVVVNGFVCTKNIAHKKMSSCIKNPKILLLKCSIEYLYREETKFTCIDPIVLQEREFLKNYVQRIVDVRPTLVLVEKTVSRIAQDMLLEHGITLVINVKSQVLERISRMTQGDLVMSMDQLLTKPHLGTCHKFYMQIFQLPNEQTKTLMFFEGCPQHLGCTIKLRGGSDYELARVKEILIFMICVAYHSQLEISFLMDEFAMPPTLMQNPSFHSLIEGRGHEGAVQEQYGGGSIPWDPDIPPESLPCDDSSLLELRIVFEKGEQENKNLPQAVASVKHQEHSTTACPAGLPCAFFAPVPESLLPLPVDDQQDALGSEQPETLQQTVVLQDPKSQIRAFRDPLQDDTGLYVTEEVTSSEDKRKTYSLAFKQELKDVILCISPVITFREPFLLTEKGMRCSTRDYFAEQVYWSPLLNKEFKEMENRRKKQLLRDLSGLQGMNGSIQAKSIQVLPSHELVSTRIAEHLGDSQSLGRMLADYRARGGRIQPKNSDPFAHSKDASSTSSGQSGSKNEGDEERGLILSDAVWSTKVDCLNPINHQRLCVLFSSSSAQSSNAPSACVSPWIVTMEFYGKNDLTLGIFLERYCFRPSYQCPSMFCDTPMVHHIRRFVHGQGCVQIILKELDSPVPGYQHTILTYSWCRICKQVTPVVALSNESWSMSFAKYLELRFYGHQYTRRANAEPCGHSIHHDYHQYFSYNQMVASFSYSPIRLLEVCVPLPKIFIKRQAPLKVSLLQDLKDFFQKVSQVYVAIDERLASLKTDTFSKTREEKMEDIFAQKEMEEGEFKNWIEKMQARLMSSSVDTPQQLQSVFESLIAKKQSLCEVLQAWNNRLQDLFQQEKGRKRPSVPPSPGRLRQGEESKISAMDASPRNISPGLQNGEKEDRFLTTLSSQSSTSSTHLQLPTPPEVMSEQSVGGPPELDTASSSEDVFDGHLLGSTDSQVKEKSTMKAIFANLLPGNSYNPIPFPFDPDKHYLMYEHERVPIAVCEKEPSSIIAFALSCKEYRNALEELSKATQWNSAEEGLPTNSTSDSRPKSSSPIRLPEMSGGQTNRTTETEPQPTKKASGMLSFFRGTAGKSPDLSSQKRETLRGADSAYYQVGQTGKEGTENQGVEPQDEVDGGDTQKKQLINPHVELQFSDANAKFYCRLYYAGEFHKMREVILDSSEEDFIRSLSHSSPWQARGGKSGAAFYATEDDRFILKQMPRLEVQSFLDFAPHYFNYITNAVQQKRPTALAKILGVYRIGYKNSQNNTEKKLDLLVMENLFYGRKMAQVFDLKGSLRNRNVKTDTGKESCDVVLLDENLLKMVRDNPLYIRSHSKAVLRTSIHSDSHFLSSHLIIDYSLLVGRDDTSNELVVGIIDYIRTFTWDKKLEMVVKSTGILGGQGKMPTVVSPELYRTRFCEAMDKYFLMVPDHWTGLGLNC

Structure (SMILES)	IC50
COc1c(Nc2ccncc2)nc(OC[C@H]2COCCN2)nc1-c1cccc(-c2ccn(C)n2)c1 [Compound 42, (R)-5-methoxy-6-(3-(1-methyl-1H-pyrazol-3-yl)phenyl)-2-(morpholin-3-ylmethoxy)-N-(pyridin-4-yl)pyrimidin-4-amine]	1 to 10 µM
COc1cc(-c2nc(N3CCOCC3)nc(Nc3cccnc3)c2OC)cnc1OC [Compound 18, 6-(5,6-dimethoxypyridin-3-yl)-5-methoxy-2-morpholino-N-(pyridin-3-yl)pyrimidin-4-amine]	1 to 10 µM
COc1c(Nc2cccnc2)nc(N2CCOCC2)nc1-c1cccc(N2CCOCC2=O)c1 [Compound 28, 4-(3-(5-methoxy-2-morpholino-6-(pyridin-3-ylamino)pyrimidin-4-yl)phenyl)morpholin-3-one]	1 to 10 µM
COc1c(-c2cccc(-n3cccn3)c2)nc(N2CCOCC2)nc1-c1nc(-c2ccccc2)c[nH]1 [Compound 61, 4-(4-(3-(1H-pyrazol-1-yl)phenyl)-6-methoxy-6-(4-phenyl-1H-imidazol-2-yl)pyrimidin-2-yl)morpholine]	1 to 10 µM
CN(C)C(=O)c1c(Nc2ccncc2)nc(N2CCOCC2)nc1-c1cccc(-c2ccn(C)n2)c1 [Compound 66]	0.1 to 1 µM
Cn1ccc(-c2ccc3[nH]c(=O)c4c(Nc5ccncc5)nc(N5CCOCC5)nc4c3c2)n1 [Compound 72, 9-(1-methylpyrazol-3-yl)-2-morpholino-4-(4-pyridylamino)-6H-pyrimido[5,4-c]quinolin-one]	0.01 to 0.1 µM
COc1c(Nc2cccnc2)nc(N2CCOCC2)nc1-c1cccc(N2CCC(O)CC2)c1 [Compound 55, 1-(3-(5-methoxy-2-morpholino-6-(pyridin-3-ylamino)pyrimidin-4-yl)phenyl)piperidin-4-ol]	1 to 10 µM
Cn1ccc(-c2cccc(-c3nc(N4CCOCC4)nc(Nc4cccnc4)c3P(C)(C)=O)c2)n1 [Compound 45, dimethyl(4-(3-(1-methyl-1H-pyrazol-3-yl)phenyl)-2-morpholino-6-(pyridin-3-ylamino)pyrimidin-6-yl)phosphine oxide]	1 to 10 µM
COc1c(NCc2cccnn2)nc(N2CCOCC2)nc1-c1cccc(-c2ccn(C)n2)c1 [Compound 31, 5-methoxy-6-(3-(1-methyl-1H-pyrazol-3-yl)phenyl)-2-morpholino-N-(pyridazin-3-ylmethyl)pyrimidin-4-amine]	1 to 10 µM
COc1c(Nc2ccncc2)nc(N2CCOCC2)nc1-c1cccc(-n2ccc(C)n2)c1 [Compound 9]	0.01 to 0.1 µM
COc1c(N2CCOCC2)nc(-c2cccc(-n3cccn3)c2)nc1N1CCN(C)C(=O)C1 [Compound 36]	1 to 10 µM
COc1c(Nc2cccnc2)nc(N2CCOCC2)nc1-c1cccc(N2CCC(O)C2)c1 (centres unmarked) [Compound 26, 1-(3-(5-methoxy-2-morpholino-6-(pyridin-3-ylamino)pyrimidin-4-yl)phenyl)pyrrolidin-3-ol]	1 to 10 µM
COc1c(Nc2ccncc2)nc(N2CCOCC2)nc1-c1cccc(N2CCC(O)CC2)c1 [Compound 48, 1-(3-(5-methoxy-2-morpholino-6-(pyridin-4-ylamino)pyrimidin-4-yl)phenyl)piperidin-4-ol]	0.1 to 1 µM
Clc1c(Nc2ccncc2)nc(N2CCOCC2)nc1-c1cccc(-n2cccn2)c1 [Compound 50, 6-(3-(1H-pyrazol-1-yl)phenyl)-5-chloro-2-morpholino-N-(pyridin-4-yl)pyrimidin-4-amine]	0.1 to 1 µM
Cn1ccc(-c2cccc(-c3nc(N4CCOCC4)nc(Nc4cccnc4)c3[S+](C)[O-])c2)n1 (centres unmarked) [Compound 59]	1 to 10 µM
COc1ccc(-c2nc(N3CCOCC3)nc(Nc3cccnc3)c2OC)cc1OC [Compound 22]	1 to 10 µM
COc1c(Nc2ccncc2)nc(N2CCOCC2)nc1-c1cccc(-c2ncco2)c1 [Compound 54, 5-methoxy-2-morpholino-6-(3-(oxazol-2-yl)phenyl)-N-(pyridin-4-yl)pyrimidin-4-amine]	0.01 to 0.1 µM
